Experiment: Inhibition of CXCR6-mediated cell invasion in human SKHEP1 cells after 72 hrs by transwell assay

COc1cc(C(=O)N[C@@H]2C[C@H]3CCC[C@@H](C2)N3Cc2nc3c(C(F)(F)F)cccc3s2)cc(OC)c1OC
IC50: 2.1 µM

From BindingDB's records for doi:10.1016/j.bmcl.2019.126899 (Sanford Burnham Prebys Medical Discovery Institute, 2020)
